Reference: patent publication EP4745135A1 (Gluetacs Therapeutics (Shanghai) Co., Ltd., priority 2023, dated 2025)

How the values were obtained:
[1] = target: T1, human Cereblon WT GST-tagged protein (Homo sapiens, UniProt Q96SW2); assay: CRBN-binding affinity, HTRF (CEREBLON BINDING kit); settings: for inhibition at 0.5 µM: read-out: Inhibition Rate at 0.5 µM (%); for inhibition at 2 µM: read-out: Inhibition Rate at 2 µM (%)
T1 construct: purchased CISBIO 64BDCRBNPEH

[2] = target: T2, IKZF1 (Homo sapiens, UniProt Q13422+Q96SW2); assay: Western blot, degradation of substrate protein in hPBMCs; assay type: cell-based; settings: Western blot, 24 hours of compound treatment, compounds tested at 50 nM and 500 nM (concentration for the table not stated)
T2 construct: effects of the compounds of the present disclosure on the expression of target proteins in cells; endogenous in cells; host or cells: human PBMCs (Milecell Biotechnologies)

[3] = target: T3, IKZF3 (Homo sapiens, UniProt Q96SW2+Q9UKT9); assay: as above; assay type: cell-based; settings: Western blot, 24 hours of compound treatment, compounds tested at 50 nM and 500 nM (concentration for the table not stated)
T3 construct: effects of the compounds of the present disclosure on the expression of target proteins in cells; endogenous in cells; host or cells: human PBMCs (Milecell Biotechnologies)

[4] = target: T4, IKZF2 (Homo sapiens, UniProt Q96SW2+Q9UKS7); assay: as above; assay type: cell-based; settings: Western blot, 24 hours of compound treatment, compounds tested at 50 nM and 500 nM (concentration for the table not stated)
T4 construct: effects of the compounds of the present disclosure on the expression of target proteins in cells; endogenous in cells; host or cells: human PBMCs (Milecell Biotechnologies)

[5] = target: T5, WEE1 (Homo sapiens, UniProt P30291+Q96SW2); assay: as above; assay type: cell-based; settings: Western blot, 24 hours of compound treatment, compounds tested at 50 nM and 500 nM (concentration for the table not stated)
T5 construct: effects of the compounds of the present disclosure on the expression of target proteins in cells; endogenous in cells; host or cells: human PBMCs (Milecell Biotechnologies)

[6] = target: T6, CK1α (Homo sapiens, UniProt P48729+Q96SW2); assay: as above; assay type: cell-based; settings: Western blot, 24 hours of compound treatment, compounds tested at 50 nM and 500 nM (concentration for the table not stated)
T6 construct: effects of the compounds of the present disclosure on the expression of target proteins in cells; endogenous in cells; host or cells: human PBMCs (Milecell Biotechnologies)

[7] = tested on: GSPT1; assay: as above; assay type: cell-based, Human; settings: Western blot, 24 hours of compound treatment, compounds tested at 50 nM and 500 nM (concentration for the table not stated)

T2 sequence (Q13422 whole entry): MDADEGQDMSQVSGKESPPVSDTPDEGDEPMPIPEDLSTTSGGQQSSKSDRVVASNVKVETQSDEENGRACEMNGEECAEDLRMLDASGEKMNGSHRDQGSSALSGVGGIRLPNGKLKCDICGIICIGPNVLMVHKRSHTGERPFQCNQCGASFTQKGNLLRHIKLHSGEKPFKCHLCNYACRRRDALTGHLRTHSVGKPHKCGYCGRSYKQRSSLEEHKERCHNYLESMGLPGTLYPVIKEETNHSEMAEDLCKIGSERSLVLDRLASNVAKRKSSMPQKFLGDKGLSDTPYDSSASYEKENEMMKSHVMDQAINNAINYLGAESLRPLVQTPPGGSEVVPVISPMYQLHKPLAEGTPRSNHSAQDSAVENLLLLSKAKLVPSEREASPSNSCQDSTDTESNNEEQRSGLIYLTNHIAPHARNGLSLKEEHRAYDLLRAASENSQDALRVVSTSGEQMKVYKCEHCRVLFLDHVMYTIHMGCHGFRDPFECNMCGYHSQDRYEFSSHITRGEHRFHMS
T2 sequence (Q96SW2 whole entry): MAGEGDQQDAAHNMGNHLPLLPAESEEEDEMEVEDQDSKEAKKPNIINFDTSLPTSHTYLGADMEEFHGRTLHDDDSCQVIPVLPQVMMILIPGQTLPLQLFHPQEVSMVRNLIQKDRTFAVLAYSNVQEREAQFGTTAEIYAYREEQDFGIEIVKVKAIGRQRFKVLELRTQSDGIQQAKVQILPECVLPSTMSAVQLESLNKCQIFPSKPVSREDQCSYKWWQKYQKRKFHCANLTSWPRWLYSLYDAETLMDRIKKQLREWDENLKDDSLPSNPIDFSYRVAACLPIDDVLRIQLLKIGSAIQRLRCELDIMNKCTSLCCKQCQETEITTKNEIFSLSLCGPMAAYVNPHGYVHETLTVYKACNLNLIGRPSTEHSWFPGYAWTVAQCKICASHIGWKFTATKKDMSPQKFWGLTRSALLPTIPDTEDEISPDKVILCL
T2 sequence (Q16531 whole entry partner): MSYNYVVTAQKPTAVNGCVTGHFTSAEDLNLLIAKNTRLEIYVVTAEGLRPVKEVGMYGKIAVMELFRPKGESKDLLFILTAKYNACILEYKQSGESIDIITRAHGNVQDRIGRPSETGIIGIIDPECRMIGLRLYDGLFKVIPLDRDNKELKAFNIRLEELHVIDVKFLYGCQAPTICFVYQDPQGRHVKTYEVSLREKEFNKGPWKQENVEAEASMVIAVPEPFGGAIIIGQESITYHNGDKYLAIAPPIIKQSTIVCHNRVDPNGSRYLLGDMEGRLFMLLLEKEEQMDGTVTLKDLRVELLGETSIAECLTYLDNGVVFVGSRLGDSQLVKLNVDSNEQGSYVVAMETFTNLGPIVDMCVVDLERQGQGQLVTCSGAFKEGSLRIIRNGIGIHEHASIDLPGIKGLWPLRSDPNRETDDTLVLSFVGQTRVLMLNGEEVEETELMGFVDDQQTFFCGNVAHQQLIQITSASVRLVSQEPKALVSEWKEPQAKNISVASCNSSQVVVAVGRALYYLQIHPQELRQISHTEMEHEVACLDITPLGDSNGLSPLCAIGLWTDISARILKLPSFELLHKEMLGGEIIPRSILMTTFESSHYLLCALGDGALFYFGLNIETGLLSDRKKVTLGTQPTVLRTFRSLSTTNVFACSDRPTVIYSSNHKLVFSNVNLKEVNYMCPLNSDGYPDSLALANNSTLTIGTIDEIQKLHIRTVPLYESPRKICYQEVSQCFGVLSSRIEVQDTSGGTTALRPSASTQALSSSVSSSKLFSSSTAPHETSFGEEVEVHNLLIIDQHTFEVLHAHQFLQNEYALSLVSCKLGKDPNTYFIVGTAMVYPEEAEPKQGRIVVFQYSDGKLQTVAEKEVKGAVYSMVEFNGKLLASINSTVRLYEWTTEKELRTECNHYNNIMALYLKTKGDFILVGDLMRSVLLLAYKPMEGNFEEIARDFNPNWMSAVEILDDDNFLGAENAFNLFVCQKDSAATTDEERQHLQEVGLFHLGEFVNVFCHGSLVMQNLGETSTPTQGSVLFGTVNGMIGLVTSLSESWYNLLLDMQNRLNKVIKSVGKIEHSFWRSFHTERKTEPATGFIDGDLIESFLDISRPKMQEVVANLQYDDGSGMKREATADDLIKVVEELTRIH
T3 sequence (Q9UKT9 whole entry): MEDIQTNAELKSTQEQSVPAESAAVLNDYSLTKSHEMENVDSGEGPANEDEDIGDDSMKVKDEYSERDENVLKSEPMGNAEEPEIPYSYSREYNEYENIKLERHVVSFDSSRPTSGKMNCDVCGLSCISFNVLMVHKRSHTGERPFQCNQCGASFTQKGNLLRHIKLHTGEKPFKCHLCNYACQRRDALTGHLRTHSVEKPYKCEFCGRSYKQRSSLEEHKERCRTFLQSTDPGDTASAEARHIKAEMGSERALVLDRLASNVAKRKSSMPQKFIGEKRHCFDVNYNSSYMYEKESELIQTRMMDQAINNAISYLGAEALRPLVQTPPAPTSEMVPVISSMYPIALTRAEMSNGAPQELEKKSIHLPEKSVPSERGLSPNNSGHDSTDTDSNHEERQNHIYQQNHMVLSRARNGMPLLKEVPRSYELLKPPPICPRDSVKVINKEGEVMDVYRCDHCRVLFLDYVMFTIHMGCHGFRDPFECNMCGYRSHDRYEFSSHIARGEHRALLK
T3 sequence (Q96SW2 whole entry): as the sequence (Q96SW2 whole entry) above
T3 sequence (Q16531 whole entry partner): as the sequence (Q16531 whole entry partner) above
T4 sequence (Q9UKS7 whole entry): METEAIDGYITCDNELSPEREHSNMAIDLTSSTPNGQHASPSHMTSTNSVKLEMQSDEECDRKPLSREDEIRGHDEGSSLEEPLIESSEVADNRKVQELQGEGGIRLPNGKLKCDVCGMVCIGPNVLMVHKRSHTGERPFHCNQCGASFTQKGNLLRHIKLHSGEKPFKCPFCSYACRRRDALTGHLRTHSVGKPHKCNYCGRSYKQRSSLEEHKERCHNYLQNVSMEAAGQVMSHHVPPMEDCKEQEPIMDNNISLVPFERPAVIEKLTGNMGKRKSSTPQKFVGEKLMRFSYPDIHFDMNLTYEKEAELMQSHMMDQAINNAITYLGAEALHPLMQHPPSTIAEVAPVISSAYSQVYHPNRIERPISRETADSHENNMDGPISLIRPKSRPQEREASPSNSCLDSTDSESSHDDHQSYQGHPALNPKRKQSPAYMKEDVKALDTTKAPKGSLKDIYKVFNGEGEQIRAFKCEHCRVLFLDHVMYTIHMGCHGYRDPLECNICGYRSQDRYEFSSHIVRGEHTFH
T4 sequence (Q96SW2 whole entry): as the sequence (Q96SW2 whole entry) above
T4 sequence (Q16531 whole entry partner): as the sequence (Q16531 whole entry partner) above
T5 sequence (P30291 whole entry): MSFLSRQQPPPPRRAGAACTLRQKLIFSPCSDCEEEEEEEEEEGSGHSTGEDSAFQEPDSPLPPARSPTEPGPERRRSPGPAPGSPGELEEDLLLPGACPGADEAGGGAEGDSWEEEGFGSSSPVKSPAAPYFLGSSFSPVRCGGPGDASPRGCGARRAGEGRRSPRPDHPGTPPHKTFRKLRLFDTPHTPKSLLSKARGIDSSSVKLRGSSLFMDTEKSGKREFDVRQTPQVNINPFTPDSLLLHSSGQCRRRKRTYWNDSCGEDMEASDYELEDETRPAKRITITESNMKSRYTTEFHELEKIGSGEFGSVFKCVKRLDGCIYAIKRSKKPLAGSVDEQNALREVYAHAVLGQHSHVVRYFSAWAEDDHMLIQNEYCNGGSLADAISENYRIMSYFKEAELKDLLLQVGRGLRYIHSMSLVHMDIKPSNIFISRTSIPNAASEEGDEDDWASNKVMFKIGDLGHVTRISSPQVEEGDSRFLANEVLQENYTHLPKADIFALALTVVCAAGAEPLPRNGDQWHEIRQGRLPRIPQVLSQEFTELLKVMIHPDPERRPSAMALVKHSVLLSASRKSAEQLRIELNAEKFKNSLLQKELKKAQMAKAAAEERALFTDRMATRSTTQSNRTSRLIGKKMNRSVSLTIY
T5 sequence (Q96SW2 whole entry): as the sequence (Q96SW2 whole entry) above
T5 sequence (Q16531 whole entry partner): as the sequence (Q16531 whole entry partner) above
T6 sequence (P48729 whole entry): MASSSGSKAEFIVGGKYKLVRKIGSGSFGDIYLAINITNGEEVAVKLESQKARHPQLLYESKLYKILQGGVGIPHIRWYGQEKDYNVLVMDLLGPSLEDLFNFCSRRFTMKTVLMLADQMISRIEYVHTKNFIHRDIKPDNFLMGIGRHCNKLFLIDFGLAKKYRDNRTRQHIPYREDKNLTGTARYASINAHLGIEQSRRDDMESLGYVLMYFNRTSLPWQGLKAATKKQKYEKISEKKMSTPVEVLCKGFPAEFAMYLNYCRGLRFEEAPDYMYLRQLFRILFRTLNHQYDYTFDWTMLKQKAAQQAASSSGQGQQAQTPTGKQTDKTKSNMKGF
T6 sequence (Q96SW2 whole entry): as the sequence (Q96SW2 whole entry) above
T6 sequence (Q16531 whole entry partner): as the sequence (Q16531 whole entry partner) above
T1 sequence (Q96SW2 whole entry): as the sequence (Q96SW2 whole entry) above

Structure (SMILES) | inhibition at 0.5 µM [1] [%] | inhibition at 2 µM [1] [%] | IKZF 1 substrate protein remaining % [2] | IKZF3 substrate protein remaining % [3] | IKZF2 substrate protein remaining % [4] | Wee1 substrate protein remaining % [5] | CK1α substrate protein remaining % [6] | GSPT1 substrate protein remaining % [7]
O=C1CCC(N2Cc3cc(CN4CCN(c5ccccn5)CC4)ccc3C2=S)C(=O)N1 (centres unmarked) [GT-09216, 3-(5-((4-(pyridin-2-yl)piperazin-1-yl)methyl)-1-thioxoisoindolin-2-yl)piperidine-2,6-dione] | 60 to 80 | 80 to 100 | B (80%< substrate protein remaining %≤ 100%) | B (80%< substrate protein remaining %≤ 100%) | B (80%< substrate protein remaining %≤ 100%) | B (80%< substrate protein remaining %≤ 100%) | B (80%< substrate protein remaining %≤ 100%) | A (0% ≤ substrate protein remaining % ≤ 80%)
O=C1CCC(N2Cc3cc(CN4CCN(c5cc(Cl)ccn5)CC4)ccc3C2=S)C(=O)N1 (centres unmarked) [GT-09218, 3-(5-((4-(4-chloropyridin-2-yl)piperazin-1-yl)methyl)-1-thioxoisoindolin-2-yl)piperidine-2,6-dione] | 60 to 80 | 80 to 100 | B (80%< substrate protein remaining %≤ 100%) | B (80%< substrate protein remaining %≤ 100%) | B (80%< substrate protein remaining %≤ 100%) | B (80%< substrate protein remaining %≤ 100%) | B (80%< substrate protein remaining %≤ 100%) | A (0% ≤ substrate protein remaining % ≤ 80%)
O=C1CCC(N2Cc3cc(CN4CCN(c5ncccc5Cl)CC4)ccc3C2=S)C(=O)N1 (centres unmarked) [GT-09219, 3-(5-((4-(3-chloropyridin-2-yl)piperazin-1-yl)methyl)-1-thioxoisoindolin-2-yl)piperidine-2,6-dione] | 60 to 80 | 80 to 100 | B (80%< substrate protein remaining %≤ 100%) | B (80%< substrate protein remaining %≤ 100%) | A (0% ≤ substrate protein remaining % ≤ 80%) | B (80%< substrate protein remaining %≤ 100%) | B (80%< substrate protein remaining %≤ 100%) | A (0% ≤ substrate protein remaining % ≤ 80%)
O=C1CCC(N2Cc3cc(CN4CCN(c5cccc(F)n5)CC4)ccc3C2=S)C(=O)N1 (centres unmarked) [GT-09221, 3-(5-((4-(6-fluoropyridin-2-yl)piperazin-1-yl)methyl)-1-thioxoisoindolin-2-yl)piperidine-2,6-dione] | 80 to 100 | 80 to 100 | A (0% ≤ substrate protein remaining % ≤ 80%) | B (80%< substrate protein remaining %≤ 100%) | B (80%< substrate protein remaining %≤ 100%) | A (0% ≤ substrate protein remaining % ≤ 80%) | B (80%< substrate protein remaining %≤ 100%) | B (80%< substrate protein remaining %≤ 100%)
O=C1CCC(N2Cc3cc(CN4CCN(c5ccc(F)cn5)CC4)ccc3C2=S)C(=O)N1 (centres unmarked) [GT-09222, 3-(5-((4-(5-fluoropyridin-2-yl)piperazin-1-yl)methyl)-1-thioxoisoindolin-2-yl)piperidine-2,6-dione] | 60 to 80 | 80 to 100 | A (0% ≤ substrate protein remaining % ≤ 80%) | B (80%< substrate protein remaining %≤ 100%) | B (80%< substrate protein remaining %≤ 100%) | A (0% ≤ substrate protein remaining % ≤ 80%) | B (80%< substrate protein remaining %≤ 100%) | B (80%< substrate protein remaining %≤ 100%)

Now from value to compound, other results behind:

inhibition at 0.5 µM [1] [%] | inhibition at 2 µM [1] [%] | Structure (SMILES) | IKZF 1 substrate protein remaining % [2] | IKZF3 substrate protein remaining % [3] | IKZF2 substrate protein remaining % [4] | Wee1 substrate protein remaining % [5] | CK1α substrate protein remaining % [6] | GSPT1 substrate protein remaining % [7]
60 to 80 | 80 to 100 | O=C1CCC(N2Cc3cc(CN4CCN(c5ncccc5C(F)(F)F)CC4)ccc3C2=S)C(=O)N1 (centres unmarked) [GT-09223, 3-(1-thioxo-5-((4-(3-(trifluoromethyl)pyridin-2-yl)piperazin-1-yl)methyl)isoindolin-2-yl)piperidine-2,6-dione] | B (80%< substrate protein remaining %≤ 100%) | B (80%< substrate protein remaining %≤ 100%) | B (80%< substrate protein remaining %≤ 100%) | A (0% ≤ substrate protein remaining % ≤ 80%) | A (0% ≤ substrate protein remaining % ≤ 80%) | B (80%< substrate protein remaining %≤ 100%)
60 to 80 | 80 to 100 | O=C1CCC(N2Cc3cc(CN4CCN(c5ccc(C(F)(F)F)cn5)CC4)ccc3C2=S)C(=O)N1 (centres unmarked) [GT-09225, 3-(1-thioxo-5-((4-(5-(trifluoromethyl)pyridin-2-yl)piperazin-1-yl)methyl)isoindolin-2-yl)piperidine-2,6-dione] | B (80%< substrate protein remaining %≤ 100%) | A (0% ≤ substrate protein remaining % ≤ 80%) | B (80%< substrate protein remaining %≤ 100%) | B (80%< substrate protein remaining %≤ 100%) | A (0% ≤ substrate protein remaining % ≤ 80%) | A (0% ≤ substrate protein remaining % ≤ 80%)
60 to 80 | 80 to 100 | O=C1CCC(N2Cc3cc(CN4CCN(c5nccc(I)c5F)CC4)ccc3C2=S)C(=O)N1 (centres unmarked) [GT-09227, 3-(5-((4-(3-fluoro-4-iodopyridin-2-yl)piperazin-1-yl)methyl)-1-thioxoisoindolin-2-yl)piperidine-2,6-dione] | B (80%< substrate protein remaining %≤ 100%) | B (80%< substrate protein remaining %≤ 100%) | B (80%< substrate protein remaining %≤ 100%) | B (80%< substrate protein remaining %≤ 100%) | A (0% ≤ substrate protein remaining % ≤ 80%) | A (0% ≤ substrate protein remaining % ≤ 80%)
40 to 53 | 80 to 100 | O=C1CCC(N2Cc3cc(CN4CCN(c5ncc(C(F)(F)F)cc5Cl)CC4)ccc3C2=S)C(=O)N1 (centres unmarked) [GT-09228, 3-(5-((4-(3-chloro-5-(trifluoromethyl)pyridin-2-yl)piperazin-1-yl)methyl)-1-thioxoisoindolin-2-yl)piperidine-2,6-dione] | B (80%< substrate protein remaining %≤ 100%) | B (80%< substrate protein remaining %≤ 100%) | B (80%< substrate protein remaining %≤ 100%) | B (80%< substrate protein remaining %≤ 100%) | A (0% ≤ substrate protein remaining % ≤ 80%) | B (80%< substrate protein remaining %≤ 100%)
60 to 80 | 80 to 100 | O=C1CCC(N2Cc3cc(CN4CCN(c5ccc(Cl)nc5)CC4)ccc3C2=S)C(=O)N1 (centres unmarked) [GT-09230, 3-(5-((4-(6-chloropyridin-3-yl)piperazin-1-yl)methyl)-1-thioxoisoindolin-2-yl)piperidine-2,6-dione] | B (80%< substrate protein remaining %≤ 100%) | B (80%< substrate protein remaining %≤ 100%) | B (80%< substrate protein remaining %≤ 100%) | B (80%< substrate protein remaining %≤ 100%) | A (0% ≤ substrate protein remaining % ≤ 80%) | A (0% ≤ substrate protein remaining % ≤ 80%)
